The results in this text go back to publication PMC12091851, “Replacing a Cereblon Ligand by a DDB1 and CUL4 Associated Factor 11 (DCAF11) Recruiter Converts a Selective Histone Deacetylase 6 PROTAC into a Pan‐Degrader” (Chemmedchem, 2025).

In data set [1] the test system is MDA-MB-231 cells. Briefly: Clonogenic growth assay. The format is cell-based, human. The following applies: 10 μM for 48 h, nine days of growth. As for the experimental part: Figure 9 Clonogenic growth assay of DCAF11‐recruiting PROTACs. MDA‐MB‐231 cells were treated with 10 μM of the respective compound or vehicle (DMSO) for 48 hours. (A) Representative images of crystal violet stained colonies after nine days of growth. (B) Quantification of counted colonies, presented as mean ± standard deviation of three biological replicates, each performed in triplicates. Significance of quantification compared to vehicle: ns=p≥0.05; **=p≤0.01 and ***=p≤0.001. […]
Subsequently, cells were harvested and
plated in 6-well plates at a density of 750 cells per well in triplicates. The cell culture medium was
changed after five days. Nine days after plating, the colonies were carefully washed with 500 µL DPBS
and stained with 500 µL crystal violet solution (0.5% in methanol). After 30 minutes of incubation at
room temperature, the wells were gently rinsed with deionized water. After counting the formed
colonies, GraphPad Prism (GraphPad Software) was used for bar graph creation. Significance testing
was performed with a one-way analysis of variance (ANOVA). Dunnett’s post-hoc test was employed
to obtain significance levels of each mean compared to a reference mean value.

Data set [2] can be described thus: Aqueous stability assay in DPBS buffer (HPLC). It is filed as physicochemical. Particulars: DPBS pH 7.4, 10% DMSO, room temperature, 72 hours. As for the experimental part:
and A6. Compounds were diluted in DPBS buffer (pH = 7.4; final DMSO concentration: 10%) and the remaining compound content was analyzed by HPLC. The peak area at 0 h was used for normalization.
Mean ± standard deviation of n = 2 replicates.
Figure S4. Analysis of time dependent degradation by 1j of HDAC1 (A) and HDAC6 (B) by Simple Western™ immunoassay analysis of MM.1S cell lysates. MM.1S cells were treated with 1j (10 µM) or vehicle (DMSO) for the indicated time period. Quantification of protein levels presented as mean ± standard deviation of n = 3 biological replicates. Si gnificance compared to vehicle: * = p≤0.05 , […]
2.5. Aqueous Stability Assay
For stability testing in aqueous solution, a 10-fold concentrated DMSO solution of the respective compounds was diluted in DPBS to generate a 10 µM concentration (final DMSO content of 10%).
Samples of the aqueous solutions were taken after 0, 24, 48, and 72 h at room temperature and the amounts of the parental compound and potential fragments were monitored by HPLC gradient A (see 3.1 General Information). The peak area of the 0 h sample was used for normalization. All compounds were tested in duplicates and GraphPad Prim was used for evaluation and data visualization.
The cell lysis was performed as descripted in 3.2. Simple Western Immunoassay. […]
(§1) Afterwards, proteins were transferred with the Trans -Blot Turbo Transfer System (Catalog# 1704150, Bio-Rad) to Immobilon-FL PVDF membranes (Catalog# IPFL00005, Mill ipore Merck, Burlington, MA, USA) at 1.0 A for 30 min and treated with 5% milk-powder solution for 1 h at room temperature under slight agitation. […] The ChemiDoc XRS+ System (Catalog# 1708265 , Bio-Rad) was used for detection and Image Lab Software 6.1 (Bio-Rad) for quantification. […]
In vitro inhibitory activities against HDAC1, 2 , and 6 were measured using a previously published protocol.[3] In vitro inhibitory activities against HDAC4 were measured using a previously published protocol with slight modifications. […]

Data set [3] addresses HDAC4 (Homo sapiens, UniProt P56524). The experiment in a line: Immunoblot HDAC4 degradation in MM.1S cell lysates. The format is cell-based. Further details: endogenous in cells; host or cells: MM.1S. Particulars: MM1.S, MM.1S cells, 24 h, read-out: maximal degradation (Dmax) HDAC4. As for the experimental part: Figure 6 Examination of HDAC isoform degradation. MM.1S cells were treated with the indicated compounds (10 μM) or vehicle (DMSO) for 24 h. HDAC1, 2, 4, and 6 levels were analyzed by immunoblotting. (A) Representative images from a total of n=3 biological replicates. […]
The cell lysis was performed as descripted in 3.2. Simple Western Immunoassay. Samples were denatured by Laemmli 2× Concentrate (Catalog# S3401-10VL, Sigma-Aldrich) for 5 min at 95 °C, and Precision Plus Protein Unstained Standard was used as molecular weight marker (Catalog# 1610363, Bio-Rad, Hercules, CA, USA). SDS-PAGE was performed with 10 or 12% Mini-PROTEAN TGX Stain-Free Gel (Catalog# 458035, Bio -Rad) at 200 V for 50 min (Catalog# 458035, Bio -Rad).
as §1
For orientation: In western blotting, separated proteins are transferred to a membrane and probed.

For orientation: Dmax means the largest share of the target that was removed.

Chain of HDAC4 (P56524 whole entry, canonical isoform): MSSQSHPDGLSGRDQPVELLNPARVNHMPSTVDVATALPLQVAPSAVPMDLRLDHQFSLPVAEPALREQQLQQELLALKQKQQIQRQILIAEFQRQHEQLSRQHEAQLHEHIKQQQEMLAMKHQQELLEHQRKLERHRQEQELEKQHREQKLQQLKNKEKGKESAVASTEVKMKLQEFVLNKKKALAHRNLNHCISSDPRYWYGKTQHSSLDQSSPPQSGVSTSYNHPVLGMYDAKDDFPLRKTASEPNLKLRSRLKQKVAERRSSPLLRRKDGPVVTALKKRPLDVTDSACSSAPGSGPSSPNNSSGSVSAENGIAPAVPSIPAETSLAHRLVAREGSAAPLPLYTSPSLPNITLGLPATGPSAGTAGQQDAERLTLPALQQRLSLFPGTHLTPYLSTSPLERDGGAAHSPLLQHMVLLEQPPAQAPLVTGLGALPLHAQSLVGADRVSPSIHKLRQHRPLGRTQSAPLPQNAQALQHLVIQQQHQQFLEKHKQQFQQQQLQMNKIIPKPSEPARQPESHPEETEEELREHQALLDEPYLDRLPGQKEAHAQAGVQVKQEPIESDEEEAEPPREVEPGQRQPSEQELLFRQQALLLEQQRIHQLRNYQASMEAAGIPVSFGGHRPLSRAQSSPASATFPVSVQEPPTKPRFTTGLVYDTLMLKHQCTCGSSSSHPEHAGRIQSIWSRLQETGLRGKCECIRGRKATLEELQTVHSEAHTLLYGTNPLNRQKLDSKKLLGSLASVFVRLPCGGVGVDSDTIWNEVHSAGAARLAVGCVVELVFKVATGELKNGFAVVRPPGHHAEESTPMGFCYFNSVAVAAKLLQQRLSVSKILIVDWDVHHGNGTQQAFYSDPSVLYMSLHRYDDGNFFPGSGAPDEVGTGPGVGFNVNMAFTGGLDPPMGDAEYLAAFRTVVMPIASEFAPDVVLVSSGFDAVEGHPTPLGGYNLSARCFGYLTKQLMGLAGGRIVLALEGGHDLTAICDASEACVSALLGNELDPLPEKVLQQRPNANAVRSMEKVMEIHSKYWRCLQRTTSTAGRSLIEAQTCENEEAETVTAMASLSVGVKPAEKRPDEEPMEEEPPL

Turning to `O=C(CCCCCCNC(=O)c1ccc(NC(=O)CCCCCCCCCCCN(C(=O)CCl)C(C(=O)NCc2ccccc2)c2ccc(Cl)c(Cl)c2)cc1)NO` (stereo not drawn) [Compound 1j], in data set [1], the “reduction of colonies (clonogenic growth)” value is recorded as “significant reduction of colonies”. In data set [2], the “decomposition / reduction in content in DPBS buffer” value was “more than 90%”. Moreover, the Dmax at 10 µM in data set [3] lay within 71 to 76%.

Take `O=C(CCCCCCNC(=O)c1ccc(N(C(=O)CCl)C(C(=O)NCc2ccccc2)c2ccc(Cl)c(Cl)c2)cc1)NO` (stereo not drawn) [Compound 2]: in data set [1], the “reduction of colonies (clonogenic growth)” value is “significant reduction of colonies”. The “decomposition / reduction in content in DPBS buffer” value in data set [2] came out at 31%. In data set [3], the Dmax at 10 µM is 40%.
